Our source for the Papp values is PubChem BioAssay AID1508612.

The series is described as follows: passive permeability, PAMPA, ADME assay (AID 1508612). The settings on record: pH 7.4, 30.0 min, 50.0 µM. (In general: The PAMPA barrier holds no transporters, so it reflects passive diffusion.)

A value given as a limit tells only on which side of the number the result lay.

Turning to `O=C1Nc2ccccc2/C1=C\c1ccc(O)c(Cl)c1`, the apparent permeability (Papp) (as a rule, the rate of passage across a membrane or cell layer, normalised by area and donor concentration) was 608 ×10⁻⁶ cm/s.

On to `Cc1cccc2c1NC(=O)/C2=C/c1cc(Cl)c(O)c(Cl)c1`, for which the apparent permeability (Papp) worked out at 66.3 ×10⁻⁶ cm/s. As for `Cc1cc(N=Nc2ccc(S(=O)(=O)Nc3ccccn3)cc2)c(N)cc1O`, the Papp is 29.4 ×10⁻⁶ cm/s.

With `CCNC(=O)c1ccc(-c2ccc3ncnc(NCC4CCCO4)c3c2)o1` (configuration not stated), the Papp worked out at 146 ×10⁻⁶ cm/s. The result for `COc1cc(-c2nc(Nc3ccc(F)c(F)c3)c3ccccc3n2)cc(OC)n1` reads 26.5 ×10⁻⁶ cm/s. The result for `Cc1cc(Nc2ccc(Br)c(C)c2)n2nc(C)nc2n1` reads 874 ×10⁻⁶ cm/s.

Molecule `C=C1C(=O)O[C@@H]2[C@H]3O[C@]3(C)CC/C=C(\C)CC[C@@H]12` registered a Papp greater than 1000 ×10⁻⁶ cm/s. The result for `NC(=O)C1CCN(c2ncc(Br)cn2)CC1` reads 61.5 ×10⁻⁶ cm/s. For the molecule `O=[S+]([O-])(Nc1ccccc1)c1ccc(NCc2cccc(Cl)c2F)cc1`, the Papp amounted to 383 ×10⁻⁶ cm/s. To `CCOc1ccc(CCNC(=O)c2cc3sccc3n2Cc2ccc(-n3cncn3)cc2)cc1OCC` belongs greater than 1000 ×10⁻⁶ cm/s; to `O=S(=O)(Nc1nccs1)c1ccc(NCc2cccc(O)c2)cc1`, 1.15 ×10⁻⁶ cm/s.

In turn, `COc1ccc2c(c1)N(C[C@H](C)CN(C)C)c1ccccc1S2` registered an apparent permeability (Papp) of 902 ×10⁻⁶ cm/s. Molecule `CN(C)c1cccc(-c2nccc(N3CCC(C(N)=O)CC3)n2)c1` showed a Papp of 287 ×10⁻⁶ cm/s.

Consider `COc1c(C)c2c(c(O)c1C/C=C(\C)CCC(=O)OCCN1CCOCC1)C(=O)OC2`, for which the Papp was determined as 613 ×10⁻⁶ cm/s. The result for `Cc1ccc(S(=O)(=O)Nc2cnccc2C(=O)Nc2nc(-c3ccc4c(c3)CCCC4)cs2)cc1` reads 45.2 ×10⁻⁶ cm/s; that for `Cc1ccc(S(=O)(=O)Nc2ccc(C)cc2C(=O)Nc2nc(-c3ccccc3)cs2)cc1`, less than 1 ×10⁻⁶ cm/s. The result for `COc1ccccc1-c1nc(NCc2cnc(C)cn2)c2ccccc2n1` reads greater than 1000 ×10⁻⁶ cm/s; that for `CC(=O)Nc1cc(-c2nc(Nc3ccc(F)c(F)c3)c3ccccc3n2)ccn1`, 438 ×10⁻⁶ cm/s; that for `CC(=O)c1ccc(N[S+](=O)([O-])c2cccc(NC(=O)c3[nH]c(C)c(C(C)=O)c3C)c2)cc1`, less than 1 ×10⁻⁶ cm/s. The result for `COc1cc2c(cc1OC)C(C[C@H]1CN(S(=O)(=O)c3cccc(C#N)c3)CC[C@H]1CC(=O)O)=NCC2` reads 3.25 ×10⁻⁶ cm/s; that for `Cc1noc(C)c1-c1ccc2ncnc(NC(C)c3ccccc3)c2c1` (configuration not stated), greater than 1000 ×10⁻⁶ cm/s. `Cc1noc(C)c1-c1cc2c(cc(C)n2C)c(-c2cnn(C)c2)n1`: the Papp worked out at 549 ×10⁻⁶ cm/s.

Consider `O=C(O)c1ccc(-c2c[nH]c3ncc(-c4ccccc4)cc23)cc1C1CCCC1`, for which the Papp was determined as 400 ×10⁻⁶ cm/s.

Turning to `CCC(=O)NC(c1ccc(OC)cc1)c1cc(Cl)c2cccnc2c1O` (configuration not stated), the apparent permeability (Papp) stood at 687 ×10⁻⁶ cm/s. For the molecule `O=C(Cc1ccc(Cl)c(Cl)c1)Nc1ccc(S(=O)(=O)Nc2cccc(O)c2)cc1`, the Papp was determined as 15.6 ×10⁻⁶ cm/s.

Molecule `CC(=O)Nc1ccc(CN2CCc3nc(C(C)C)nc(-c4ccc(Cl)cc4)c3CC2)cc1` gave an apparent permeability coefficient (Papp) greater than 1000 ×10⁻⁶ cm/s. To `CC[C@H]1CN(C)[C@H]2Cc3c([nH]c4ccccc34)C(=O)C[C@H]1[C@H]2C(=O)OC` belongs 490 ×10⁻⁶ cm/s.

In turn, `CN1CCN(C(=O)c2ccc3cc(CCNc4ncnc5ccc(C#N)cc45)ccc3c2)CC1` returned an apparent permeability coefficient (Papp) of 545 ×10⁻⁶ cm/s.

As to `NC(=O)C1CCN(c2nc(-c3ccc4c(c3)OCCCO4)cs2)CC1`, the Papp stood at 629 ×10⁻⁶ cm/s. To `COc1ccc(-c2ccc3nc(-c4cc(C)cc(C)c4)oc3c2)c(OC)c1OC` belongs less than 1 ×10⁻⁶ cm/s; to `CNC(=O)c1cccc(-c2cnc(Nc3cccc(C(F)(F)F)c3)c3c2CCO3)c1`, 58.9 ×10⁻⁶ cm/s; to `CC(C)NC(=O)C1CCN(C(=O)c2cc3sccc3n2Cc2ccc(Cl)cc2)CC1`, greater than 1000 ×10⁻⁶ cm/s. To `CC(C)(C)c1ccc(C(=O)Nc2cn3cc(-n4ccnc4)ccc3n2)cc1` belongs 952 ×10⁻⁶ cm/s; to `O=[S+]([O-])(Nc1ccc(N2CCNCC2)cc1)c1ccc(NCc2ccc(Cl)cc2O)cc1`, 6.78 ×10⁻⁶ cm/s. Molecule `NC(=O)C1CCN(c2ncc(-c3cccc(N4CCCC4)c3)s2)CC1` came in with a Papp of 95.6 ×10⁻⁶ cm/s.

The molecule `COc1ccc(-c2nc3c(c(SCC(=O)Nc4ccc(C(=O)O)cc4)n2)Cc2ccccc2O3)cc1` registered a Papp of 1.18 ×10⁻⁶ cm/s. On to `Fc1cccc(Nc2nc(-c3ccncc3)nc3ccccc23)c1F`, for which the Papp is 799 ×10⁻⁶ cm/s. Consider `COc1cc(C(=O)NC2CCCc3c2[nH]c2c(Cl)cccc32)cc(OC)c1OC` (configuration not stated), for which the Papp turned out to be 593 ×10⁻⁶ cm/s. The result for `Fc1ccc(Nc2nc(-c3ccnc4ccccc34)nc3ccccc23)cc1F` reads 202 ×10⁻⁶ cm/s; that for `NC(=O)Nc1cc(-c2ccc(CN3CCOCC3)cc2)sc1C(N)=O`, 40.3 ×10⁻⁶ cm/s; that for `O=C(NCCCn1ccnc1)c1ccc(-c2ncc3cnc(-c4cccc(F)c4)cn23)cc1`, less than 1 ×10⁻⁶ cm/s. The result for `Cc1noc(C)c1S(=O)(=O)Nc1cnccc1C(=O)Nc1nc(-c2ccccc2)cs1` reads 339 ×10⁻⁶ cm/s; that for `CC(=O)c1ccc(N2CCN(C(=O)c3ccc4c(c3)CC(=O)N4)CC2)cc1`, 40.5 ×10⁻⁶ cm/s.

Consider `Cc1ccc(S(=O)(=O)Nc2cnccc2C(=O)Nc2ccc(C#N)cc2)cc1`, for which the Papp came to 69.6 ×10⁻⁶ cm/s. The result for `CCOc1cc(CCNC(=O)c2cc3sccc3n2Cc2ccccc2)cc(F)c1OCC` reads less than 1 ×10⁻⁶ cm/s; that for `Fc1ccc(Nc2nc(-c3ccncc3)nc3ccccc23)cc1F`, 376 ×10⁻⁶ cm/s. The result for `COc1cccc(NS(=O)(=O)c2ccc(NCc3cccc(OC)c3O)cc2)c1` reads 603 ×10⁻⁶ cm/s.
